target: T1, APOL1 (tet-inducible transgenic APOL1 T-REx-HEK293 cell lines) (Homo sapiens, UniProt O14791); assay: MultiTox-Fluor Multiplex Cytotoxicity Assay for APOL1 inhibitor properties; format: cell-based; details: APOL1 induced with 50 ng/mL tet, 24 hours with compound, ratio of dead to live cells, top concentration 10 μM; APOL1 variant (G0/G1/G2) not stated; read-out: IP50 (nM) (i.e., IC50 for cell proliferation)
T1 sequence (O14791 1-398 S342G/I384M): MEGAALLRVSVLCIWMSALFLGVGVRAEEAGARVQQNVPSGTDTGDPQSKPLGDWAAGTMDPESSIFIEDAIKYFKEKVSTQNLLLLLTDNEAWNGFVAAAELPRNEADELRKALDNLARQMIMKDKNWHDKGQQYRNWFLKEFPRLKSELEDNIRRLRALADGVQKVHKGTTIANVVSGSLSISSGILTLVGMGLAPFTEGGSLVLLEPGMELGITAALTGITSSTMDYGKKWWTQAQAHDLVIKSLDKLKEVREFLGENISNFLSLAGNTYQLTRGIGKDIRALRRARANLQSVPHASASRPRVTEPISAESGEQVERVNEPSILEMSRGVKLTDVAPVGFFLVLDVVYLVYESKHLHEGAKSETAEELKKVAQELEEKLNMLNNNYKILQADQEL
Protocol: The MultiTox-Fluor Multiplex Cytotoxicity Assay is a single-reagent-addition, homogeneous, fluorescence assay that measures the number of live and dead cells simultaneously in culture wells. The assay measures cell viability and cytotoxicity by detecting two distinct protease activities. The live-cell protease activity is restricted to intact viable cells and is measured using a fluorogenic, cell-permeant peptide glycyl-phenylalanylamino fluorocoumarin (GF-AFC) substrate. The substrate enters intact cells, where it is cleaved to generate a fluorescent signal proportional to the number of living cells. […] A second, cell-impermeant, fluorogenic peptide substrate (bis-AAF-R110 Substrate) is used to measure dead-cell protease that has been released from cells that have lost membrane integrity. A ratio of dead to live cells is used to normalize data.
Briefly, the tet-inducible transgenic APOL1 T-REx-HEK293 cell lines were incubated with 50 ng/mL tet to induce APOL1 in the presence of 3-(2-(4-fluorophenyl)-1H-indol-3-yl)-N-((3S,4R)-4-hydroxy-2-oxopyrrolidin-3-yl)propenamide at 10.03, 3.24, 1.13, 0.356, 0.129, 0.042, 0.129, 0.0045, 0.0015, 0.0005 μM in duplicate for 24 hours in a humidified 37° C. incubator. The MultiTox reagent was added to each well and placed back in the incubator for an additional 30 minutes. The plate was read on the EnVision plate reader. A ratio of dead to live cells was used to normalize, and data was imported, analyzed, and fit using Genedata Screener (Basel, Switzerland) software. Data was normalized using percent of control, no tet (100% viability), and 50 ng/mL tet treated (0% viability), and fit using Smart Fit. The reagents, methods, and complete protocol for the MultiTox assay are described below.
Human embryonic kidney (HEK293) cell lines containing a tet-inducible expression system (T-REx™; Invitrogen, Carlsbad, CA) and Adeno-associated virus site 1 pAAVS1-Puro-APOL1 G0 or pAAVS1-Puro-APOL1 G1 or pAAVS1-Puro-APOL1 G2 Clones G0 DC2.13, G1 DC3.25, and G2 DC4.44 were grown in a T-225 flask at ˜90% confluency in cell growth media (DMEM, 10% Tet-free FBS, 2 mM L-glutamine, 100 Units/mL penicillin-streptomycin, 5 μg/mL blasticidin S HCl, 1 μg/mL puromycin dihydrochloride). Cells were washed with DPBS and then trypsinized to dissociate from the flask. Media was used to quench the trypsin, cells were then pelleted at 200 g and resuspended in fresh cell assay media (DMEM, 2% Tet-free FBS, 2 mM L-glutamine, 100 Units/mL penicillin-streptomycin). Cells were counted and diluted to 1.17×10^6 cells/mL. 20 μL of cells (23,400/well) were dispensed in every well of a 384-well Poly-D-Lysine coated plate using the Multidrop dispenser. The plates were then incubated at room temperature for one hour.
Tetracycline is needed to induce APOL1 expression. 1 mg/mL tet stock in water was diluted to 250 ng/mL (5×) in cell assay media. 60 μL of cell assay media (no tet control) was dispensed in columns 1 and 24, and 60 μL of 5×tet in 384-PP-round bottom plate was dispensed in columns 2 to 23 with the Multidrop dispenser.
Assay ready plates from the Global Compound Archive were ordered using template 384_APOL1Cell_DR10n2_50 uM_v3. Compounds were dispensed at 200 nL in DMSO. The final top concentration was 10 μM with a 10 point 3-fold dilution in duplicate in the MultiTox assay.
20 μL was transferred from the 5×tet plate to the ARP and mixed, then 5 μL of 5×tet and the compounds were transferred to the cell plate and mixed using the Bravo. The cell plate was placed in the humidified 37° C. 5% CO2 incubator for 24 hours.
The MultiTox-Fluor Multiplex Cytotoxicity Assay was performed in accordance with the manufacturer's protocol. After cells were incubated with tet and compound for 24 hours, 25 μL of 1×MultiTox reagent was added to each well using the Multidrop dispenser; the plates were placed on a plate shaker (600 rpm) for 2 minutes, then centrifuged briefly and placed back in the 37° C. incubator for 30 minutes. […]

| Compound | IC50 |
| --- | --- |
| C[C@@H]1C[C@](O)(c2cccc(Cl)c2)C[C@H](C)N1 [Compound 1] | ≥ 500 nM |
| CC1CC(O)(c2cccc(Cl)c2)CC(c2cnn(CCS(C)(=O)=O)c2)N1 (stereo not drawn) [Compound 2] | 50 to 500 nM |
| C[C@H]1C[C@@](O)(c2cccc(Cl)c2)C[C@@H](c2cn(C)nn2)N1 [Compound 3] | 50 to 500 nM |
| C[C@H]1C[C@@](O)(c2ccc(Cl)cc2)C[C@@H](c2cn(C)nn2)N1 [Compound 4] | ≤ 50 nM |
| Cc1ccc([C@@]2(O)C[C@@H](c3cn(C)nn3)N[C@@H](C)C2)cc1 [Compound 5] | 50 to 500 nM |
| Cc1cccc([C@@]2(O)C[C@@H](c3cn(C)nn3)N[C@@H](C)C2)c1 [Compound 6] | 50 to 500 nM |
| C[C@H]1C[C@@](O)(c2ccccc2)C[C@@H](c2cn(C)nn2)N1 [Compound 7] | ≥ 500 nM |
| CC(C)c1ccc([C@@]2(O)C[C@@H](c3cn(C)nn3)N[C@@H](C)C2)cc1 [Compound 8] | ≤ 50 nM |
| C[C@H]1C[C@@](O)(c2ccc(F)c(Cl)c2)C[C@@H](c2cn(C)nn2)N1 [Compound 9] | 50 to 500 nM |
| C[C@H]1C[C@@](O)(c2cc(F)cc(Cl)c2)C[C@@H](c2cn(C)nn2)N1 [Compound 10] | 50 to 500 nM |
| Cc1ccc([C@@]2(O)C[C@@H](c3cn(C)nn3)N[C@@H](C)C2)cc1F [Compound 11] | 50 to 500 nM |
| Cc1cc([C@@]2(O)C[C@@H](c3cn(C)nn3)N[C@@H](C)C2)ccc1F [Compound 12] | 50 to 500 nM |
| C[C@H]1C[C@@](O)(c2ccc(Cl)c(F)c2)C[C@@H](c2cn(C)nn2)N1 [Compound 13] | ≤ 50 nM |
| C[C@H]1C[C@@](O)(c2csc(C(F)(F)F)c2)C[C@@H](c2cn(C)nn2)N1 [Compound 14] | 50 to 500 nM |
| C[C@H]1C[C@@](O)(c2ccc(F)cc2)C[C@@H](c2cn(C)nn2)N1 [Compound 15] | ≥ 500 nM |
| C[C@H]1C[C@@](O)(c2ccc(C(F)(F)F)cc2)C[C@@H](c2cn(C)nn2)N1 [Compound 16] | ≤ 50 nM |
| C[C@H]1C[C@@](O)(c2ccc(Cl)nc2)C[C@@H](c2cn(C)nn2)N1 [Compound 17] | 50 to 500 nM |
| C[C@H]1C[C@@](O)(c2ccc(Cl)cn2)C[C@@H](c2cn(C)nn2)N1 [Compound 18] | 50 to 500 nM |
| COc1cc([C@@]2(O)C[C@@H](c3cn(C)nn3)N[C@@H](C)C2)ccc1Cl [Compound 19] | ≤ 50 nM |
| COc1cc(Cl)ccc1[C@@]1(O)C[C@@H](c2cn(C)nn2)N[C@@H](C)C1 [Compound 20] | ≥ 500 nM |
| Cc1cc(Cl)ccc1[C@@]1(O)C[C@@H](c2cn(C)nn2)N[C@@H](C)C1 [Compound 21] | 50 to 500 nM |
| C[C@H]1C[C@@](O)(c2ccc(Cl)cc2F)C[C@@H](c2cn(C)nn2)N1 [Compound 22] | ≤ 50 nM |
| C[C@H]1C[C@@](O)(c2ccc(Cl)c(OC(F)(F)F)c2)C[C@@H](c2cn(C)nn2)N1 [Compound 23] | ≤ 50 nM |
| C[C@H]1C[C@@](O)(c2ccc(Cl)c(C(=O)N(C)C)c2)C[C@@H](c2cn(C)nn2)N1 [Compound 24] | 50 to 500 nM |
| C[C@H]1C[C@@](O)(c2ccc(C(F)(F)F)c(F)c2)C[C@@H](c2cn(C)nn2)N1 [Compound 25] | ≤ 50 nM |
| Cc1cc([C@@]2(O)C[C@@H](c3cn(C)nn3)N[C@@H](C)C2)ccc1Cl [Compound 26] | ≤ 50 nM |

| Compound | IC50 |
| --- | --- |
| C[C@H]1C[C@@](O)(c2ccc(Br)cc2)C[C@@H](c2cn(C)nn2)N1 [Compound 27] | ≤ 50 nM |
| COc1cc([C@@]2(O)C[C@@H](c3cn(C)nn3)N[C@@H](C)C2)ccc1C(F)(F)F [Compound 28] | ≤ 50 nM |
| C[C@H]1C[C@@](O)(c2ccc(C3CC3)cc2)C[C@@H](c2cn(C)nn2)N1 [Compound 29] | ≤ 50 nM |
| C[C@H]1C[C@@](O)(c2ccc(C#N)cc2)C[C@@H](c2cn(C)nn2)N1 [Compound 30] | 50 to 500 nM |
| C[C@H]1C[C@@](O)(c2ccc3c(c2)CC(C)(C)O3)C[C@@H](c2cn(C)nn2)N1 [Compound 31] | ≥ 500 nM |
| C[C@H]1C[C@@](O)(c2ccc3c(c2)C2(CCO3)CC2)C[C@@H](c2cn(C)nn2)N1 [Compound 32] | 50 to 500 nM |
| C[C@H]1C[C@@](O)(c2ccc(Cl)c(C(F)(F)F)c2)C[C@@H](c2cn(C)nn2)N1 [Compound 33] | ≤ 50 nM |
| Cc1cc([C@@]2(O)C[C@@H](c3cn(C)nn3)N[C@@H](C)C2)ccc1C(F)(F)F [Compound 34] | ≤ 50 nM |
| C[C@H]1C[C@@](O)(c2ccnc(C(F)(F)F)c2)C[C@@H](c2cn(C)nn2)N1 [Compound 35] | ≥ 500 nM |
| C[C@H]1C[C@@](O)(c2ccc(C(F)(F)F)c(Cl)c2)C[C@@H](c2cn(C)nn2)N1 [Compound 36] | ≤ 50 nM |
| C[C@H]1C[C@@](O)(c2ccc(C(F)(F)F)nc2)C[C@@H](c2cn(C)nn2)N1 [Compound 37] | 50 to 500 nM |
| C[C@H]1C[C@@](O)(c2ccc(C(F)F)cc2)C[C@@H](c2cn(C)nn2)N1 [Compound 38] | ≤ 50 nM |
| C[C@H]1C[C@@](O)(c2ccc(C(C)(F)F)cc2)C[C@@H](c2cn(C)nn2)N1 [Compound 39] | ≤ 50 nM |
| C[C@H]1C[C@@](O)(c2ccc3c(c2)OC(F)(F)C3(F)F)C[C@@H](c2cn(C)nn2)N1 [Compound 40] | ≤ 50 nM |
| C[C@H]1C[C@@](O)(c2ccc3c(c2)CCC3(F)F)C[C@@H](c2cn(C)nn2)N1 [Compound 41] | < 10000 nM |
| COc1cc([C@]2(O)C[C@H](C)N(C)[C@H](c3cn(C)nn3)C2)ccc1C(F)(F)F [Compound 42] | 50 to 500 nM |
| C[C@H]1C[C@@](O)(c2ccc(C(F)(F)F)c(O)c2)C[C@@H](c2cn(C)nn2)N1 [Compound 43] | ≤ 50 nM |
| C[C@H]1C[C@@](O)(c2ccc(C(F)(F)F)cc2O)C[C@@H](c2cn(C)nn2)N1 [Compound 44] | 50 to 500 nM |
| C[C@H]1C[C@@](O)(CS(=O)(=O)c2ccc(Br)cc2)C[C@@H](c2cn(C)nn2)N1 [Compound 45] | ≥ 500 nM |
| C[C@H]1C[C@@](C#N)(c2ccc(C(F)(F)F)cc2)C[C@@H](c2cn(C)nn2)N1 [Compound 46, (2S,4S,6S)-2-methyl-6-(1-methyltriazol-4-yl)-4-[4-(trifluoromethyl)phenyl]piperidine-4-carbonitrile] | 50 to 500 nM |
| C[C@H]1C[C@@](O)(c2ccc(C(F)(F)C(F)(F)F)cc2)C[C@@H](c2cn(C)nn2)N1 [Compound 47] | ≤ 50 nM |
| C[C@H]1C[C@@](O)(c2cccc(C(F)(F)F)c2)C[C@@H](c2cn(C)nn2)N1 [Compound 48] | 50 to 500 nM |
| C[C@H]1C[C@@](O)(c2ccc(SC3CC3)cc2)C[C@@H](c2cn(C)nn2)N1 [Compound 49] | 50 to 500 nM |
| C[C@H]1C[C@@](O)(c2ccc(C(F)(F)F)c(OC(F)(F)F)c2)C[C@@H](c2cn(C)nn2)N1 [Compound 50] | ≤ 50 nM |
| C[C@H]1C[C@@](O)(c2ccc(C(F)(F)F)c(C(F)(F)F)c2)C[C@@H](c2cn(C)nn2)N1 [Compound 51] | ≤ 50 nM |
